Legend:
[1] = tested on: biotin-induced antibody release, U2OS clone #7 cells; test: High-throughput RUSH screen: biotin-induced cytoplasmic GFP signal decay (antibody release), U2OS clone #7; format: cell-based, human; conditions: for inhibition of the biotin-induced decrease of the GFP signal: 4 h compound, then 40 μM biotin 1 h, screening; for retention of the RUSH antibody in the cytoplasm: screening campaigns, summary
Procedure: FIGS. 4A-4C show the high-throughput screening of chemical compound libraries for the identification of modulators of protein secretion. […] U2OS clone #7 is plated in 384-well plates and incubated for 24 h before treatment with each compound of the Prestwick, ICCB Known Bioactives, or Autophagy Compound Library at 2 concentrations, low and high (with a 10-fold difference). […] The results of the Prestwick library screening at the low drug concentration are plotted. Brefeldin A was used as a positive control of the inhibition of secretion. The compounds causing a cytoplasmic GFP intensity below that observed for biotin-only treated cells are potential enhancers of protein secretion.
U2OS cells were transfected with the streptavidin-KDEL plasmid using Lipofectamine 2000 (Thermo Fisher Scientific) and selected in medium supplemented with G418 (400 μg/mL, Gibco-Invitrogen) for 2 weeks. Limiting dilution in 96-well plates was used for single cell isolation from the selected pool. Clones were amplified and selected based on streptavidin immunofluorescence. Clone #BD6 showing the highest streptavidin expression was further expanded in medium supplemented with G418 (200 μg/mL) and transfected with the anti-PD-L1 IgG RUSH plasmid using Lipofectamine 2000 and selected in medium supplemented with G418 (200 μg/mL) and hygromycin (100 μg/mL, Santa Cruz Biotechnology) for 2 weeks. Limiting dilution in 96-well plates was used for single cell isolation from clone #BD6-derived selected pool. Clones were amplified and selected based on GFP fluorescence and clone #7 was selected for further characterization and screening campaigns.
U2OS clone #7 cells were seeded in black 384-well imaging plates (Greiner bio one), 2,000 cells/well, and incubated for 24 h at 37° C. in a humidified incubator with 5% CO2. Cells were treated on the next day with the compounds from either the Prestwick library at […], the ICCB Known Bioactives library at 1/100^e or 1/1000^e, or the autophagy compound library at 10 μM or 1 μM for 4 h. […] Cells were then fixed as described above and processed for subsequent automated image acquisition using a robot-assisted IXM XL BioImager (Molecular Devices, Sunnyvale, CA, USA) equipped with a Sola light source (Lumencor, Beaverton, OR, USA), adapted excitation and emission filters (Semrock) a 16-bit monochrome sCMOS PCO.edge 5.5 camera (PCO, Kelheim, Germany). A 20× PlanAPO objective (Nikon, Tokyo, Japan) was used to acquire a minimum of 4 view fields in each well. The acquired images were processed using the open-access R software (https://www.r-project.org) with the help of freely available packages EBImage (available on the Bioconductor repository https://www.bioconductor.org), and RBioFormats (https://github.com/aoles/RBioFormats), and the custom packages MetaxpR (https://github.com/asauvat/MetaxpR) and MorphR (https://github.com/kroemerlab/MorphR). Nuclei were first detected using Hoechst 33342 signal and used as a marker to detect cytoplasmic areas based on GFP signal, allowing for the evaluation of cytoplasmic GFP intensity. Data were thereafter extracted and statistically evaluated using R (https://www.r-project.org). Data were normalized using negative and positive controls, reduced and transformed into a Z-score. The experiments were repeated manually at low scale with selected drugs to confirm their effects on secretion, in this second set of assays, U2OS clone #7 cells incubated with secretion inhibitors were fixed and stained with Hoechst as described above for imaging and viability determination based on cell counts.
We next sought to use clone #7 in screening campaigns for the identification of drugs capable of enhancing or inhibiting antibody secretion. […] Cell counting was facilitated by nuclear counterstaining with Hoechst 33324 in order to assess viability and distinguish drug effects on the secretion kinetics from direct cytotoxicity and select relevant drugs for further characterization. […]

[2] = tested on: RUSH antibody secretion, U2OS clone #7 cells; test: ELISA on immobilized PD-L1: RUSH antibody titer in supernatant of treated clone #7 cells; format: cell-based, human; conditions: 50 μg/mL; for inhibition of antibody secretion, validation: summary; for suppression of antibody secretion compared with brefeldin A: 4 h compound, biotin 30 min, FIG. 7A
Procedure: (§1) FIGS. 7A and 7B show validation of inhibitors of protein secretion. […] Clone #7 cells were treated with the indicated compounds and supernatants were assayed for PD-L1 binding. Brefeldin A was used as a protein secretion inhibitor positive control. […] Hoechst 33324 fluorescence was measured, which enabled to number adherent living cells in each well.
U2OS clone #7 cells were seeded in 6-well plates and kept for 24 h at 37° C. in a humidified incubator with 5% CO2. The next day, the supernatants were removed, cells were rinsed with 37° C. pre-heated PBS and new medium containing the chemical treatment was added for 4 h. […] Then supernatants were collected and used for the ELISA assay as follows. MaxiSorp 96-well plates (Thermo Fisher Scientific) were coated with 0.5 μg/mL hFc-human-PD-L1 (R&D Systems, Minneapolis, MN) in PBS for 5.5 h at RT. Coating solution was then removed and 2% BSA/PBS blocking solution was added overnight at 4° C. The next day, wells were washed 3 times with 0.5% BSA/0.05% Tween-20/PBS solution. Supernatants were added after a ⅓ dilution in 0.5% BSA/0.05% Tween-20/PBS, for 2.3 h at RT. Wells were washed 3 times with 0.5% BSA/0.05% Tween-20/PBS solution. Anti-human kappa light chain HRP-coupled antibody was added diluted in 0.5% BSA/0.05% Tween-20/PBS at 1/4000^e for 2.3 h at RT. Wells were washed 3 times with 0.5% BSA/0.05% Tween-20/PBS solution before incubation with substrate reagents pack (R&D Systems) for 15 min in the dark. Fifty μL of STOP solution (R&D Systems) were then added to each well and the absorbance in each well was subsequently measured at 450 nm, and 635 nm for background subtraction, using a VICTOR™ X4 (PerkinElmer, Waltham, MA).
Medium- and high-throughput screenings often yield false positive and negative hits, calling for independent validation in low-throughput experiments with orthogonal technologies. In a first round of experiments, we evaluated the effects of shortlisted compounds with potential antibody secretion enhancer activity. Compounds identified in the screening campaigns were tested again on clone #7 at a low concentration (FIG. 6A) or a ten-fold higher concentration (FIG. 6B) for their ability to increase antibody secretion. […] We further characterized these hits in an PD-L1 binding ELISA.

TrKA = conditions: cited from earlier work
ErbB2 tyrosine kinase = conditions: ErbB2 vs EGFR; cited from earlier work
TrKB = conditions: cited from earlier work
TrKC = conditions: cited from earlier work
tyrosine kinase = tyrosine kinase inhibitor; cited from earlier work
[3] = tested on: biotin-induced antibody release, U2OS clone #7 cells; test: Low-throughput validation by imaging of the biotin-induced antibody release (cytoplasmic GFP), clone #7; format: cell-based, human; conditions: FIG. 5C
Procedure: FIGS. 5A-5C show selection of potential enhancers of protein secretion. FIGS. 5A and 5B) show dot plot representations of drugs efficiency based on their Z-scores measured at low and high drug concentration (FIG. 5A, Prestwick library; FIG. 5B, ICCB Known Bioactives and TargetMol Autophagy libraries). Compounds selected for further characterization are listed. (FIG. 5C) Clone #7 was treated with the indicated compounds, fixed and analyzed as described in FIG. 4A legend.
FIG. 6A-6C show validation of enhancers of protein secretion.
(§2) U2OS clone #7 cells were seeded in black 384-well imaging plates (Greiner bio one), 2,000 cells/well, and incubated for 24 h at 37° C. in a humidified incubator with 5% CO2. Cells were treated on the next day with the compounds from either the Prestwick library at […], the ICCB Known Bioactives library at 1/100^e or 1/1000^e, or the autophagy compound library at 10 μM or 1 μM for 4 h. […] Cells were then fixed as described above and processed for subsequent automated image acquisition using a robot-assisted IXM XL BioImager (Molecular Devices, Sunnyvale, CA, USA) equipped with a Sola light source (Lumencor, Beaverton, OR, USA), adapted excitation and emission filters (Semrock) a 16-bit monochrome sCMOS PCO.edge 5.5 camera (PCO, Kelheim, Germany). A 20× PlanAPO objective (Nikon, Tokyo, Japan) was used to acquire a minimum of 4 view fields in each well. […] Nuclei were first detected using Hoechst 33342 signal and used as a marker to detect cytoplasmic areas based on GFP signal, allowing for the evaluation of cytoplasmic GFP intensity. Data were thereafter extracted and statistically evaluated using R (https://www.r-project.org). […]
Medium- and high-throughput screenings often yield false positive and negative hits, calling for independent validation in low-throughput experiments with orthogonal technologies. In a first round of experiments, we evaluated the effects of shortlisted compounds with potential antibody secretion enhancer activity. […]

U2OS clone #7 cells = test: Toxicity assay: Hoechst staining, number of adherent living cells; format: cell-based, human; conditions: 50 μg/mL; FIG. 7B
Procedure: as §1
as §2, with “Germany).” for “Germany). A 20× PlanAPO objective (Nikon, Tokyo, Japan) was used to acquire a minimum of 4 view fields in each well.”

NLRP3 = conditions: cited from earlier work
eryptosis; apoptosis = conditions: cited from earlier work

Row | Compound | inhibition of the biotin-induced decrease of the GFP signal [1] | retention of the RUSH antibody in the cytoplasm [1] | inhibition of antibody secretion, validation [2] | suppression of antibody secretion compared with brefeldin A [2] | inhibition of TrKA phosphorylation (TrKA) | specificity to ErbB2 over EGFR (ErbB2 tyrosine kinase) | inhibitory effect on TrKB (TrKB) | inhibitory effect on TrKC (TrKC) | IC50 (tyrosine kinase) | effect on secretion by cell imaging [3] | cellular viability (U2OS clone #7 cells) | NLRP3 activation, release of IL-1β (NLRP3) | apoptosis (eryptosis; apoptosis) | eryptosis (eryptosis; apoptosis)
1 | CC(C)(C)c1cc(/C=C(\C#N)C(N)=S)cc(C(C)(C)C)c1O [tyrphostin AG-879] | inhibited the biotin-induced cytoplasmic GFP signal decay | caused the retention of the RUSH antibody in the cytoplasm | validated as an inhibitor of antibody secretion | as potent as brefeldin A in suppressing antibody secretion | effectively inhibits TrKA phosphorylation | at least 500 fold | no inhibitory effect | no inhibitory effect | 10 µM | inhibitory effect | without affecting cellular viability |  |  | 
2 | CO[C@@H]1C[C@@H](C[C@H]2CC[C@H](C)[C@H]([C@@H](C)C(=O)O)O2)O[C@]2(O[C@](C)([C@H]3CC[C@@](C)([C@@H]4O[C@@H]([C@H]5O[C@@](O)(CO)[C@H](C)C[C@@H]5C)C[C@@H]4C)O3)C[C@H]2C)[C@@H]1C [nigericin] | inhibited the biotin-induced cytoplasmic GFP signal decay | caused the retention of the RUSH antibody in the cytoplasm | confirmed as a secretion inhibitor | as potent as brefeldin A in suppressing antibody secretion |  |  |  |  |  | inhibitory effect | without affecting cellular viability | leading to the release of IL-1β | triggers apoptosis | promote eryptosis
